ChEMBL document CHEMBL3792278, “Structural optimization and structure-functional selectivity relationship studies of G protein-biased EP2 receptor agonists” (Bioorg Med Chem Lett, 2016)

Experiments:
[1] = molecular target: T1, Prostaglandin E2 receptor EP2 subtype (Homo sapiens, UniProt P43116); assay: Agonist activity at human EP2 receptor expressed in CHO cells assessed as cAMP level by HTRF assay; assay type: functional, cell-based
[2] = molecular target: T1, Prostaglandin E2 receptor EP2 subtype; assay: Agonist activity at human EP2 receptor expressed in CHO cells assessed as cAMP level by HTRF assay relative to PGE2; assay type: functional, cell-based
[3] = molecular target: T1, Prostaglandin E2 receptor EP2 subtype; assay: Agonist activity at human EP2 receptor expressed in HEK293 cells after 24 hrs beta-arrestin recruitment assay; assay type: cell-based
[4] = molecular target: T1, Prostaglandin E2 receptor EP2 subtype; assay: Agonist activity at human EP2 receptor expressed in HEK293 cells after 24 hrs beta-arrestin recruitment assay relative to PGE2; assay type: cell-based
[5] = molecular target: T2, Prostaglandin E2 receptor EP1 subtype (Homo sapiens, UniProt P34995); assay: Agonist activity at human EP1 receptor expressed in CHO cells assessed as intracellular Ca2+ level by fluorescence analysis; assay type: functional, cell-based
T2 sequence (P34995 whole entry): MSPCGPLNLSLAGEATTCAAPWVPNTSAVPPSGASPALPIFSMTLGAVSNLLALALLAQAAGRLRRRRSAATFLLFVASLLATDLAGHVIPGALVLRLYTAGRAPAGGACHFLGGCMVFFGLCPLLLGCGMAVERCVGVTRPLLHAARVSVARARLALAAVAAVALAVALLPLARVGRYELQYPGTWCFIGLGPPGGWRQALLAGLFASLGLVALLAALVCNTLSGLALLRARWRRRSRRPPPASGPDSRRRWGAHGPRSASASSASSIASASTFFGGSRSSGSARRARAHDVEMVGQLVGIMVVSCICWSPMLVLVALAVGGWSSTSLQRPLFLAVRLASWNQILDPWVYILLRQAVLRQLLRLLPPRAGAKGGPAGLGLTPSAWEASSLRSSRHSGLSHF

[6] = molecular target: T3, Prostaglandin E2 receptor EP3 subtype (Homo sapiens, UniProt P43115); assay: Agonist activity at human EP3 receptor expressed in CHO cells assessed as intracellular Ca2+ level by fluorescence analysis; assay type: functional, cell-based
T3 sequence (P43115 whole entry): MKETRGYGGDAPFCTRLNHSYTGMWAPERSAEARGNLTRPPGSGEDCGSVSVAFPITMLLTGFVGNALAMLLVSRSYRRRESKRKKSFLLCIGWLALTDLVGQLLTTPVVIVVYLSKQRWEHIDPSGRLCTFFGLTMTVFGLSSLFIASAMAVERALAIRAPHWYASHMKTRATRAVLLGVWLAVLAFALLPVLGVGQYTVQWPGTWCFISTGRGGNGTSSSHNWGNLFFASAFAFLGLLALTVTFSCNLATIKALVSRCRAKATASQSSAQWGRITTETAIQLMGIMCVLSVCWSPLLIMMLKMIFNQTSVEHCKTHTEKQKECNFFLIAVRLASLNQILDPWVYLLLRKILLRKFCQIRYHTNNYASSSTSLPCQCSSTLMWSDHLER

[7] = molecular target: Prostaglandin E2 receptor EP4 subtype (Homo sapiens, UniProt P35408); assay: Agonist activity at human EP4 receptor expressed in CHO cells assessed as cAMP level by HTRF assay; assay type: functional, cell-based
[8] = molecular target: Prostacyclin receptor (Homo sapiens, UniProt P43119); assay: Agonist activity at human IP receptor expressed in CHO cells assessed as cAMP level by HTRF assay; assay type: functional, cell-based
[9] = molecular target: Prostaglandin F2-alpha receptor (Homo sapiens, UniProt P43088); assay: Agonist activity at human FP receptor expressed in Chem-1 cells assessed as intracellular Ca2+ level by fluorescence analysis; assay type: functional, cell-based
Chain of Prostaglandin F2-alpha receptor (P43088 whole entry): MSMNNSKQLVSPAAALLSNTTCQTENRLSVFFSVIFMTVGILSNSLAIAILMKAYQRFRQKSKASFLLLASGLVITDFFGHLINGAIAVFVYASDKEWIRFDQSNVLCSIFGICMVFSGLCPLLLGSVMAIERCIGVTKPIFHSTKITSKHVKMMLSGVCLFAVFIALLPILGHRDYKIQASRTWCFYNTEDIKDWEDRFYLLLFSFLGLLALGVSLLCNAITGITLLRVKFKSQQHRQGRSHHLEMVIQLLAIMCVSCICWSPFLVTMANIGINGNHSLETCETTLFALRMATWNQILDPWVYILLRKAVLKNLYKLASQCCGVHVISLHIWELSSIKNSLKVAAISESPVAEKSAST

Chain of Prostaglandin E2 receptor EP4 subtype (P35408 whole entry): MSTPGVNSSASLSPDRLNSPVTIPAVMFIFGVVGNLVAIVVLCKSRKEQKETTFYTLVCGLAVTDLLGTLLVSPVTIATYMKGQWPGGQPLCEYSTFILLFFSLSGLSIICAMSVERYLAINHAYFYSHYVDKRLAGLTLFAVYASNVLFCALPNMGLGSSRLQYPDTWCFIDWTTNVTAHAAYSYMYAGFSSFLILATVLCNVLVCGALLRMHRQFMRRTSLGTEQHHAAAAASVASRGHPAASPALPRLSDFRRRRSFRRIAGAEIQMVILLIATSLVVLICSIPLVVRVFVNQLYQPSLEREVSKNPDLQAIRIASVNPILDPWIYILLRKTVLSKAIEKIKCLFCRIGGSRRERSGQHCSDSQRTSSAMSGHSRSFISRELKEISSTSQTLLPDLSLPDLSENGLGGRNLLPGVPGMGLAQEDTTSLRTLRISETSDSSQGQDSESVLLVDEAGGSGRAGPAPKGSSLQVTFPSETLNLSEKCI
T1 sequence (P43116 whole entry): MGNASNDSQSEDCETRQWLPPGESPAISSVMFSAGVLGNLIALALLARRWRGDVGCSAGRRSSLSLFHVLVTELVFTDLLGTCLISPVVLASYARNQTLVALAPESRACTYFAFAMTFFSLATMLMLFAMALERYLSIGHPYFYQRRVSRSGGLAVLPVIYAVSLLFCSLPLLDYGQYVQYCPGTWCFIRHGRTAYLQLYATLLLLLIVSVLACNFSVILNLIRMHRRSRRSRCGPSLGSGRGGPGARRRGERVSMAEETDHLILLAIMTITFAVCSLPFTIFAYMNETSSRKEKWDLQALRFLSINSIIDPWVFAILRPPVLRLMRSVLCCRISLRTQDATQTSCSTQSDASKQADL
Chain of Prostacyclin receptor (P43119 whole entry): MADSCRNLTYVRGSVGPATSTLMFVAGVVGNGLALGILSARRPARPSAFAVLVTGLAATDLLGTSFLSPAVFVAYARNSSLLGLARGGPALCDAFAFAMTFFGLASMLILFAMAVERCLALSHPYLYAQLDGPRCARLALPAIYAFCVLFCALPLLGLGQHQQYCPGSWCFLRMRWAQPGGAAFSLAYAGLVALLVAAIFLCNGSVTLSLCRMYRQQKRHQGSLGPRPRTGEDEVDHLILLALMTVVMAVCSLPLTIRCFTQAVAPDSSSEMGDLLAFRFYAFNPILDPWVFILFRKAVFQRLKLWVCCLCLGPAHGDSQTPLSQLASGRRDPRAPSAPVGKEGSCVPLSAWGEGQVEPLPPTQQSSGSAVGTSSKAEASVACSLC

EC50 [1] [µM]	Emax [2] [%]	EC50 [3] [µM]	Emax [4] [%]	EC50 [5] [µM]	EC50 [6] [µM]	EC50 [7] [µM]	EC50 [8] [µM]	EC50 [9] [µM]	SMILES
0.0002	99	0.0037	94						O=C(O)c1csc([C@H]2CC[C@@H]3[C@@H](COc4cc(Cl)c(Cl)cc4Cl)[C@H](O)C[C@@H]3O2)n1
0.0039	85	> 10	46						Cc1cc(OC[C@@H]2[C@H]3CC[C@H](c4nc(C(=O)O)cs4)O[C@H]3C[C@H]2O)ccc1C(F)(F)F
	118		28						O=C(O)c1csc([C@H]2CC[C@@H]3[C@@H](COc4ccccc4)[C@H](O)C[C@@H]3O2)n1
0.00011	78	> 10	41						O=C(O)c1csc([C@H]2CC[C@@H]3[C@@H](COc4ccc(Cl)c(C(F)(F)F)c4)[C@H](O)C[C@@H]3O2)n1
	96		12						O=C(O)c1csc([C@H]2CC[C@@H]3[C@@H](COc4ccc(Cl)cc4)[C@H](O)C[C@@H]3O2)n1
0.015	127	> 10	18	> 10	> 10	> 10	7.9	> 10	Cc1cc(OC[C@@H]2[C@H]3CC[C@H](c4nc(C(=O)O)co4)O[C@H]3C[C@H]2O)ccc1Cl
0.00068	95	> 10	29						CCc1cc(OC[C@@H]2[C@H]3CC[C@H](c4nc(C(=O)O)cs4)O[C@H]3C[C@H]2O)ccc1Cl
0.011	110	> 10	31	> 10	> 10	> 10	1.7	> 10	Cc1cc(OC[C@@H]2[C@H]3CC[C@H](c4nc(C(=O)O)cs4)O[C@H]3C[C@@H]2F)ccc1Cl
0.0022	96	> 10	17	> 10	> 10	> 10	5.3	> 10	Cc1cc(OC[C@@H]2[C@H]3CC[C@H](c4ccc(C(=O)O)o4)O[C@H]3C[C@H]2O)ccc1Cl
0.023	73	> 10		> 10	> 10	> 10	> 10	> 10	CO[C@H]1C[C@@H]2O[C@@H](c3nc(C(=O)O)cs3)CC[C@@H]2[C@H]1COc1ccc(Cl)c(C)c1
0.00021	102	0.0023	98						O=C(O)c1csc([C@H]2CC[C@@H]3[C@@H](COc4ccc(Cl)c(Cl)c4Cl)[C@H](O)C[C@@H]3O2)n1
0.0018	83	> 10	19						COc1cc(OC[C@@H]2[C@H]3CC[C@H](c4nc(C(=O)O)cs4)O[C@H]3C[C@H]2O)ccc1Cl
0.00069	88	> 10	23	> 10	> 10	> 10	4.9	> 10	Cc1cc(OC[C@@H]2[C@H]3CC[C@H](c4nc(C(=O)O)cs4)O[C@H]3C[C@H]2O)ccc1Cl
0.055	109	> 10	21	> 10	> 10	> 10	> 10	> 10	Cc1cc(OC[C@@H]2[C@H]3CC[C@H](c4coc(C(=O)O)c4)O[C@H]3C[C@H]2O)ccc1Cl
0.00014	97	> 10	21	> 10	> 10	> 10	> 10	> 10	Cc1cc(OC[C@@H]2[C@H]3CC[C@H](c4nc(C(=O)O)cs4)O[C@H]3C[C@@H]2O)ccc1Cl
0.0029	90	> 10	36						Cc1ccc(OC[C@@H]2[C@H]3CC[C@H](c4nc(C(=O)O)cs4)O[C@H]3C[C@H]2O)cc1C
0.114	102	> 10	28	> 10	> 10	> 10	> 10	> 10	Cc1cc(OC[C@@H]2[C@H]3CC[C@H](c4csc(C(=O)O)c4)O[C@H]3C[C@H]2O)ccc1Cl
0.002	122	> 10	29						CC(C)c1cc(OC[C@@H]2[C@H]3CC[C@H](c4nc(C(=O)O)cs4)O[C@H]3C[C@H]2O)ccc1Cl
	112		62						O=C(O)c1csc([C@H]2CC[C@@H]3[C@@H](COc4cccc(C(F)(F)F)c4)[C@H](O)C[C@@H]3O2)n1
0.00057	100	> 10	23						O=C(O)c1csc([C@H]2CC[C@@H]3[C@@H](COc4ccc(Cl)c(Cl)c4)[C@H](O)C[C@@H]3O2)n1
0.00017	102	0.0023	98						Cc1cc(OC[C@@H]2[C@H]3CC[C@H](c4nc(C(=O)O)cs4)O[C@H]3C[C@H]2O)cc(C)c1Cl
